Test results taken from paper PMC7403315, “Cyclic peptide FXII inhibitor provides safe anticoagulation in a thrombosis model and in artificial lungs” (Nature Communications, 2020).
“And” between values parts separate entries of the source, which are not always exact repeats. Equal values may be shown once. “Also recorded” adds a separate entry of the source. Residues, ends and D or L forms follow the SMILES beside them.

Columns and labels:
[1] = Plasma stability assay (residual FXIIa inhibitory activity after plasma incubation); format: in vitro ADME, human; conditions: human, plasma
Protocol: Peptide (2 μl of 2 mM in H2O) was added to 398 μl of citrated human plasma (Innovative Research) to obtain a final peptide concentration of 10 μM. The mixture was incubated in a water bath at 37 °C. At different time points (0, 0.5, 1, 2, 4, 8, 12, 24, 48, and 96 h), samples of 30 μl were removed, diluted to 200 μl with aqueous buffer (10 mM Tris-HCl, pH 7.4, 150 mM NaCl, 10 mM MgCl2, 1 mM CaCl2), and incubated for 20 min at 65 °C to inactivate plasma proteases. The peptide/plasma samples were stored at −20 °C until the residual inhibitory activity of the peptides was measured in a FXIIa inhibition assay. […] IC50 values were derived from the fitted curve using an equation described in the Supplementary Methods. Residual inhibition in % was calculated using the equation IC50,0h/IC50,xh*100, wherein IC50,0h is the functional strength of the inhibitor at time point 0 and IC50,xh the functional strength of the inhibitor after one of the different plasma incubation periods mentioned above.

Mouse α-FXIIa = molecular target: T1, Mouse α-FXIIa (Mus musculus, UniProt Q80YC5); experiment: FXIIa protease inhibition assay with fluorogenic substrate Boc-Gln-Gly-Arg-AMC; format: biochemical; conditions: purified peptide without coumarin label; read-out: Ki mouse FXIIa
T1 construct: Mouse α-FXIIa; purchased Molecular Innovations MFXIIA
T1 sequence (Q80YC5 355-597 limits assumed): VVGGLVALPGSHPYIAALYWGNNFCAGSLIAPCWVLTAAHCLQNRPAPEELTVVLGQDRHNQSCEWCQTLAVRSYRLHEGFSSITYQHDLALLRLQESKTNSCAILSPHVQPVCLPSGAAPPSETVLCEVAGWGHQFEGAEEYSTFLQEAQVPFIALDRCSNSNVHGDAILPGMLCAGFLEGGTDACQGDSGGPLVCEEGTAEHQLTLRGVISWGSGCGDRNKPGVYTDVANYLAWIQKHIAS
T1 sequence (Q80YC5 20-354 limits assumed): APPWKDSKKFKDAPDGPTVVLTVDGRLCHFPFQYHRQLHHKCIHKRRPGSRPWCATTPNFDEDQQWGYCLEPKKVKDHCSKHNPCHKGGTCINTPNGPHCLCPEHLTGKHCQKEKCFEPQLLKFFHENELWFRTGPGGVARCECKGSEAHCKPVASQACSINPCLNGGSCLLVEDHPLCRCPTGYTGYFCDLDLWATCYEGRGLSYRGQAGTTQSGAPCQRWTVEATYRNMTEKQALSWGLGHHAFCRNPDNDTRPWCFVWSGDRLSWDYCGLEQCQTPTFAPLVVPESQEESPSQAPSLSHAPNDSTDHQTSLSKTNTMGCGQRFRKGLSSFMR
Protocol: (§1) In order to test the inhibitory activity of peptides without prior purification, we developed the following method. […] After solid-phase peptide synthesis, cleavage, and ether precipitation, the peptides were chemically cyclized and their Ki values were determined in a FXIIa activity assay using a fluorogenic substrate.
(§2) Protease inhibition assays
(§3) The inhibitory activity of peptides was determined by measuring the residual protease activity with a fluorogenic substrate. The assay was performed in buffer containing 10 mM Tris-Cl, pH […]
(§4) 1% (v/v) DMSO in a volume of 150 µl. FXIIa activity was measured with the fluorogenic substrate Boc-Gln-Gly-Arg-AMC (Bachem) at a final concentration of 50 µM. Mouse α-FXIIa (Molecular Innovations cat # MFXIIA) and human β-FXIIa (Molecular Innovations cat # HFXIIAB) were used at final concentrations of 0.4 nM. The reaction was pipetted as follows: 50 µl of bicyclic peptide in assay buffer were added to 50 µl of FXIIa in assay buffer and incubated for 10 minutes at 25°C before 50 µl of 150 µM fluorogenic substrate in assay buffer were added to measure the residual protease activity with an Infinite M200Pro fluorescence plate reader (excitation at 368 nm, emission at 467 nm; Tecan) for a period of 30 minutes with a read every minute at 25°C. The Tecan software i-control (version 1.1) was used for data analysis. Stock solutions of 1 mM bicyclic peptide were prepared by either dissolving the unpurified cyclization reaction with water or by dissolving purified and lyophilized peptide in water. The bicyclic peptides were serially diluted two-fold using assay buffer. Sigmoidal curves were fitted to the data using the following dose response equation (1), wherein x = peptide concentration, y = % protease activity, and p = Hill slope. IC50 values were derived from the fitted curve.
(§5) The inhibition constants (Ki) were calculated according to the equation of Cheng and Prusoff, Ki = IC50/(1+([S]0/Km), wherein IC50 is the functional strength of the inhibitor, [S]0 is the total substrate concentration, and Km is the Michaelis-Menten constant. […]
(§6) the substrate Boc-Gln-Gly-Arg-AMC. […]

human β-FXIIa = molecular target: T2, human β-FXIIa (Homo sapiens, UniProt P00748); experiment: as above; format: biochemical
T2 construct: human β-FXIIa (Molecular Innovations cat #); purchased Molecular Innovations HFXIIAB; host or cells: human blood
T2 sequence (P00748 373-615 limits assumed, other chains not shown): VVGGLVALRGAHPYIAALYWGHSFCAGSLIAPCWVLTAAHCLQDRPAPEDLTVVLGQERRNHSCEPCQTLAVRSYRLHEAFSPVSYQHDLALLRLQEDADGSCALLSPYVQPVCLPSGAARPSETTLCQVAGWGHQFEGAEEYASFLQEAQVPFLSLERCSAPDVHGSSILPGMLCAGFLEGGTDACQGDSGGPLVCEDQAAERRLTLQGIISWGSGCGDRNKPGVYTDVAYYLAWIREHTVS
Protocol: as §1, §2, §3, §4, §5, §6

FXIIa = conditions: cited from earlier work
[2] = tested on: hemostasis (tail bleeding); experiment: Tail bleeding time and volume (tail transection); conditions: mice, 2 mm tail transection, peptides 25 mg kg^−1 SC, heparin 200 IU kg^−1 IV
Protocol: Mice (8- to 10-week-old) were anesthetized with pentobarbital (50 mg kg^−1, IP), treated with PBS (IV, retro-orbital), 200 IU kg^−1 heparin (IV, retro-orbital), 25 mg kg^−1 FXII900 (SC) or 25 mg kg^−1 FXII901 (SC), and put on a 37 °C heating pad. After 5 min, the distal tail was transected at 2 mm with a disposable surgical blade, and the diameter measured to confirm that it is > 1 mm. The tail was placed in a 50 ml falcon tube filled with phosphate-buffered saline (warmed to 37 °C) and the bleeding time was recorded. The total blood loss was determined by measuring the absorption at 540 nm.

[3] = tested on: coagulation in artificial lung; experiment: Extracorporeal circulation (veno-venous ECMO, artificial lung) in rabbits
Protocol: New Zealand white rabbits of 3.2–4.2 kg (Charles River) were anesthetized via intramuscular injections of ketamine (30 mg kg^−1) and xylazine (5 mg kg^−1). One of the ear veins was catheterized via a 24G winged catheter, and the rabbits were intubated with a 3.0 endotracheal tube. The animals were kept anesthetized throughout the four-hour experiment via inhaled isoflurane (2%) and were ventilated with a peak inspiratory pressure (PIP) of < 20 cmH2O, positive end expiratory pressure of 5 mmHg, tidal volume of 4–6 ml kg^−1, and a respiratory rate of 22–60 breaths per min. Tidal volume and respiratory rate were adjusted to maintain normal arterial blood gases and the listed PIP. Phenylephrine was applied intravenously at a rate of 0.5–5 μg kg^−1 min^−1 to maintain blood pressure. For monitoring blood pressure and collecting blood samples, the rabbits’ right or left carotid arteries were cannulated using a 16-gauge angiocatheter (Becton Dickinson) and were secured with silk ties. The device and circuit were first primed with filtered CO2 and then with saline (NaCl, 0.9% [w/v]) containing solumedrol (30 mg kg^−1). At this point, rabbits of the inhibitor-treated group were injected with 2 mg kg^−1 of FXII900 as a 2 mM solution in PBS (pH 7.4) via the ear vein and the circuit was connected to the rabbits via a venous/venous ECMO configuration using a 14-gauge angiocatheter (Becton Dickinson) and a 6″ pressure tubing that was cut to length from a 24″ pressure tubing (Edwards Lifesciences) in the right and left internal jugular veins, respectively. The circuit was placed in a roller pump (Cobe), and the blood flow was set to 45 ml per min. After connecting the extracorporeal circuit, rabbits of the inhibitor-treated group were infused with 0.075 mg kg^−1 min^−1 FXII900 via the ear vein for the entire duration of the study. Rabbits treated with heparin were initially infused with 60 IU h^−1 (100 IU ml^−1) starting before connection to the circuit. The drip rate was adjusted based on the following nomogram to maintain the ACT in a range between 220 and 300 s. ACT > 320 s: decrease infusion rate by 12 IU h^−1, 320 s > ACT > 300 s: decrease infusion rate by 6 IU h^−1, 300 s > ACT > 220 s: maintain heparin infusion rate, 220 s > ACT > 200 s: increase infusion rate by 6 IU h^−1, 200 s > ACT > 180 s: increase infusion rate by 12 IU h^−1, ACT < 180 s bolus 100 U (1 ml). After four hours, the animals were euthanized by potassium chloride (2 mg kg^−1, IV). At the end of the experiment, 5 ml of heparin was run through the artificial lung while it was still connected to the rabbits.

[4] = tested on: ferric chloride-induced thrombosis; experiment: FeCl3 injury thrombosis model in mesenteric arterioles in mice; format: in vivo, mouse
Protocol: A model of thrombosis in mesenteric arterioles using intravital microscopy was performed according to Angelillo-Scherrer A. et al.[46] with minor modifications. C57BL/6J wild-type mice (male, 10–20 weeks old, 25–30 g, Charles River) were injected intravenously with Rhodamine 6G (100 μl, 1 mM, ACROS Organics product 41902) to fluorescently label the platelets and leucocytes. The mice were injected subcutaneously over the shoulders with FXII900 (5 or 25 mg kg^−1, 0.5 mg ml^−1 in PBS, pH = 7.4) or the negative control FXII901 (5 or 25 mg kg^−1, 0.5 mg ml^−1 in PBS, pH = 7.4), or intravenously (retro-orbital) with 200 IU kg^−1 heparin, and subsequently anesthetized with ketamine (80 mg kg^−1) and xylazine (16 mg kg^−1) via intraperitoneal injection. An abdominal midline incision was made to expose the mesenteric arterioles which were imaged by intravital microscopy using a Mikron IVM500 microscope (Mikron Instruments) coupled with a 50 W mercury lamp (HBO 50 microscope illuminator, Zeiss) attached to combined blue (exciter 455DF70, dichroic 515DRLP, and emitter 515ALP) and green (exciter 525DF45, dichroic 560DRLP, and emitter 565ALP) filter blocks. […] The blood flow, clot formation and vessel occlusion were monitored for 20 or 25 min wherein images were recorded every minute using a digital video cassette recorder (DSR-11, Sony) and analyzed using ImageJ software (version 1.52). Mice were euthanized by final bleeding and cervical dislocation. Time to clot formation and full occlusion of the blood vessel were determined as follows. Clot formation was defined as the formation of a clear aggregation with a diameter of around 10 µm or larger. Occlusion was defined as a clot covering the full diameter of the vessel. Mice showing no speckled pattern at the site of FeCl3 application were assumed to be not injured at the blood vessel and were excluded from the analysis.

[5] = ECMO 4 h, FXII900 2 mg kg^−1 bolus + 0.075 mg kg^−1 min^−1, heparin to ACT 220–300 s
[6] = repeat study, 20 min, heparin 200 IU kg^−1, n = 10

Compound: CC(C)C[C@@H]1NC(=O)[C@H](CCC(N)=O)NC(=O)[C@H](CCCNC(=N)N)NC(=O)[C@@H]2CSCCC(=O)N3CN(CN(C3)C(=O)CCSC[C@H](NC(=O)[C@@H](CO)NC(=O)[C@H](N)CCCNC(=N)N)C(=O)N[C@@H](Cc3ccccc3)C(=O)N[C@@H](CCCNC(=N)N)C(=O)N[C@@H](CC(C)C)C(=O)N3CCC[C@H]3C(=O)N2)C(=O)CCSC[C@@H](C(=O)N[C@@H](CCCNC(=N)N)C(N)=O)NC(=O)[C@H](CCCNC(=N)N)NC1=O [FXII850] (HELM PEPTIDE1{[dR].[dS].C.F.R.L.P.C.R.Q.L.R.C.R.[am]}|CHEM1{[O=C(CC[*:1])N1CN(C(=O)CC[*:2])CN(C(=O)CC[*:3])C1]}$PEPTIDE1,CHEM1,3:R3-1:R1|PEPTIDE1,CHEM1,8:R3-1:R2|PEPTIDE1,CHEM1,13:R3-1:R3$$$V2.0)
- half-life at 10 μM [1]: 18.5 h
- Ki (Mouse α-FXIIa): 35 nM
- Residual activity of human FXIIa (human β-FXIIa; inhibitor 0.390625 nM, 0.000390625 µM): 94.4127%
- remaining activity at 0.000390625 µM (human β-FXIIa; inhibitor 0.390625 nM, read-out: Residual activity of human FXIIa): 97.1%
- Residual activity of human FXIIa (human β-FXIIa; inhibitor 0.78125 nM, 0.00078125 µM): 86.6748%
- remaining activity at 0.00078125 µM (human β-FXIIa; inhibitor 0.78125 nM, read-out: Residual activity of human FXIIa): 93.2%
- Residual activity of human FXIIa (human β-FXIIa; inhibitor 1.5625 nM, 0.0015625 µM): 72.1433%
- remaining activity at 0.0015625 µM (human β-FXIIa; inhibitor 1.5625 nM, read-out: Residual activity of human FXIIa): 82.9%
- Residual activity of human FXIIa (human β-FXIIa; inhibitor 3.125 nM, 0.003125 µM): 57.4159%
- remaining activity at 0.003125 µM (human β-FXIIa; inhibitor 3.125 nM, read-out: Residual activity of human FXIIa): 73.8%
- Residual activity of human FXIIa (human β-FXIIa; inhibitor 6.25 nM, 0.00625 µM): 39.85%
- remaining activity at 0.00625 µM (human β-FXIIa; inhibitor 6.25 nM, read-out: Residual activity of human FXIIa): 56.3%
- Residual activity of human FXIIa (human β-FXIIa; inhibitor 12.5 nM, 0.0125 µM): 25.3131%
- remaining activity at 0.0125 µM (human β-FXIIa; inhibitor 12.5 nM, read-out: Residual activity of human FXIIa): 37.4%
- Residual activity of human FXIIa (human β-FXIIa; inhibitor 50 nM, 0.05 µM): 12.7513% and 5.338%
- Residual activity of human FXIIa (human β-FXIIa; inhibitor 100 nM, 0.1 µM): 6.402% and 0.6734%
- Residual activity of human FXIIa (human β-FXIIa; inhibitor 200 nM, 0.2 µM): 3.022% and 0%
- Residual activity of human FXIIa (human β-FXIIa; inhibitor 400 nM, 0.4 µM): 1.539% and 0%
- Ki (human β-FXIIa; purified peptide without coumarin label, read-out: Ki human FXIIa): 5 nM

Compound: NC(N)=NCCC[C@H](NC(=O)[C@H](Cc1ccccc1)NC(=O)[C@H]1CCCN1)C(=O)CCl [PCK, H-D-Pro-Phe-Arg-chloromethylketone] (HELM PEPTIDE1{[dP].F.R.[ClC[*:1]]}$$$$V2.0)
- IC50 (FXIIa): 180 nM

Compound: heparin
- bleeding time ([2]; 30 min monitored): bled essentially continuously throughout the monitored 30 min period; also recorded: constantly bleeding throughout the 30 min period
- blood loss [2]: medium to high blood loss; also recorded: either a small (3 mice) or large loss of blood (3 mice); also recorded: lost a large volume of blood
- aPTT prolongation [3, 5]: 1.5 fold
- activated clotting time (ACT) prolongation [3, 5]: 2 fold
- bleeding time prolongation ([3]; ECMO, all time points): 2 fold
- volume of the clot in relation to the device volume ([3]; ECMO, end of experiment): 5%
- bleeding time (ear incision) ([3]; ECMO, throughout the experiment): 5 to 10 min
- Clot (time to clot formation), individual mice ([4]; 200 U kg-1): 10 min (2×) and 15 min (3×) and 13 min
- Occlusion (time to full occlusion), individual mice ([4]; 200 U kg-1): 19 min
- mice showing blood clotting [4, 6]: six
- mice showing vessel occlusion [4, 6]: one
